Assays:
Conditions in all cases: recombinant enzyme
Cytochrome P450 2C9 = Cytochrome P450 2C9 (Homo sapiens, UniProt P11712); assay: (§1) Drug activation in human Hep3B cells assessed as human CYP2C9-mediated drug metabolism-induced cytotoxicity measured as decrease in cell viability at 300 uM pre-incubated with BSO for 18 hrs followed by incubation with compound for 3 hrs in presence of NADPH measured after 24 hrs in absence of compound, CYP3A4 and NADPH by cell titer-glo luminescence assay relative to BSO alone
Sequence of Cytochrome P450 2C9 (P11712 whole entry): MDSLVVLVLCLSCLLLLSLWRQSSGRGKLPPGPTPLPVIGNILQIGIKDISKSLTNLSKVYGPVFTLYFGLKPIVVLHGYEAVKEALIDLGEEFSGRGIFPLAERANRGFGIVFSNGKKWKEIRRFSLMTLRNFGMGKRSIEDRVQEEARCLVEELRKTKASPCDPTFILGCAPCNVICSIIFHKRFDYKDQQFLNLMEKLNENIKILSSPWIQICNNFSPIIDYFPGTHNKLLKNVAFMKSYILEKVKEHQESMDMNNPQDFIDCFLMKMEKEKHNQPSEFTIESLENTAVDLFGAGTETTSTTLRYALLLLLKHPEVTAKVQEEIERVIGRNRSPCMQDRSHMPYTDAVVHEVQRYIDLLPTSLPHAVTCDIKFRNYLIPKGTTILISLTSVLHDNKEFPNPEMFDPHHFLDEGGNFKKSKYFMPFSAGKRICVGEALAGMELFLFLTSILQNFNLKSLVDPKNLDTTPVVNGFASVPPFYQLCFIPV

Cytochrome P450 3A4 [1] = biological target: T1, Cytochrome P450 3A4 (Homo sapiens, UniProt P08684); assay: as §1, with “CYP3A4-mediated” for “CYP2C9-mediated”, “69.6” for “300”; assay type: ADME, cell-based
T1 sequence (P08684 whole entry): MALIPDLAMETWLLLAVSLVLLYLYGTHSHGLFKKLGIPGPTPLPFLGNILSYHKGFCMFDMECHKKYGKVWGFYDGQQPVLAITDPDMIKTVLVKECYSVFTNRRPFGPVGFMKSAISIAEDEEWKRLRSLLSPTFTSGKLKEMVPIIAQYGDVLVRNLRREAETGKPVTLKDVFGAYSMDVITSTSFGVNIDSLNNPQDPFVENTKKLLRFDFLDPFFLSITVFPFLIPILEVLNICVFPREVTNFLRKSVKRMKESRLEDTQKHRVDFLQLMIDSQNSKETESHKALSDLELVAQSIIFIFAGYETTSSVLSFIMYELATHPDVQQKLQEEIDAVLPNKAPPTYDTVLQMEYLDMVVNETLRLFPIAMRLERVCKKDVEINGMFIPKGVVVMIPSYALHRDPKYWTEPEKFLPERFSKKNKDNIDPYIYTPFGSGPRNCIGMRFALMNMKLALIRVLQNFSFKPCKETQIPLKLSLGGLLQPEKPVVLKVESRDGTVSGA

Cytochrome P450 2D6 [2] = biological target: T2, Cytochrome P450 2D6 (Homo sapiens, UniProt P10635); assay: as §1, with “CYP2D6-mediated” for “CYP2C9-mediated”, “17.6” for “300”; assay type: ADME, cell-based
T2 sequence (P10635 whole entry): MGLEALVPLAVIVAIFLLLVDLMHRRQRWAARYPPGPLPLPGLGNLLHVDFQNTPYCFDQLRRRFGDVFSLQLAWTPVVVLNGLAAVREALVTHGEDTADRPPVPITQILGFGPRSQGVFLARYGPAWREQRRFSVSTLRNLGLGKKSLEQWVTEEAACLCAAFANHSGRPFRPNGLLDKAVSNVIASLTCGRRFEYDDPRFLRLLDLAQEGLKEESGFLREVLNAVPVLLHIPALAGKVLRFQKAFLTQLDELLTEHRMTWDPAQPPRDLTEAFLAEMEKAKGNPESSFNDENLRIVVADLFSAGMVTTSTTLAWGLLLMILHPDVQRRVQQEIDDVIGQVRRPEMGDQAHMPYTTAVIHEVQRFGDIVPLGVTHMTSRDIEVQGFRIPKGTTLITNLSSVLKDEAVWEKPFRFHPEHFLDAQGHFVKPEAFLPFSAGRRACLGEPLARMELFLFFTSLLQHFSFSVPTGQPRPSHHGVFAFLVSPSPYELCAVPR

Cytochrome P450 3A4 [3] = biological target: T1, Cytochrome P450 3A4; assay: as §1, with “CYP3A4-mediated” for “CYP2C9-mediated”, “90.1” for “300”; assay type: ADME, cell-based
Cytochrome P450 2D6 [4] = biological target: T2, Cytochrome P450 2D6; assay: as §1, with “CYP2D6-mediated” for “CYP2C9-mediated”, “78.6” for “300”; assay type: ADME, cell-based
Cytochrome P450 3A4 [5] = biological target: T1, Cytochrome P450 3A4; assay: as §1, with “CYP3A4-mediated” for “CYP2C9-mediated”, “25.3” for “300”; assay type: ADME, cell-based
Cytochrome P450 3A4 [6] = biological target: T1, Cytochrome P450 3A4; assay: as §1, with “CYP3A4-mediated” for “CYP2C9-mediated”, “22.2” for “300”; assay type: ADME, cell-based
Cytochrome P450 2D6 [7] = biological target: T2, Cytochrome P450 2D6; assay: as §1, with “CYP2D6-mediated” for “CYP2C9-mediated”, “5.8” for “300”; assay type: ADME, cell-based
Cytochrome P450 3A4 [8] = biological target: T1, Cytochrome P450 3A4; assay: as §1, with “CYP3A4-mediated” for “CYP2C9-mediated”, “56.4” for “300”; assay type: ADME, cell-based
Cytochrome P450 2D6 [9] = biological target: T2, Cytochrome P450 2D6; assay: as §1, with “CYP2D6-mediated” for “CYP2C9-mediated”, “65.4” for “300”; assay type: ADME, cell-based
Cytochrome P450 3A4 [10] = biological target: T1, Cytochrome P450 3A4; assay: as §1, with “CYP3A4-mediated” for “CYP2C9-mediated”
Cytochrome P450 2D6 [11] = biological target: T2, Cytochrome P450 2D6; assay: as §1, with “CYP2D6-mediated” for “CYP2C9-mediated”
Cytochrome P450 3A4 [12] = biological target: T1, Cytochrome P450 3A4; assay: as §1, with “CYP3A4-mediated” for “CYP2C9-mediated”, “8.7” for “300”; assay type: ADME, cell-based
Cytochrome P450 2D6 [13] = biological target: T2, Cytochrome P450 2D6; assay: as §1, with “CYP2D6-mediated” for “CYP2C9-mediated”, “12.9” for “300”; assay type: ADME, cell-based
Cytochrome P450 2D6 [14] = biological target: T2, Cytochrome P450 2D6; assay: as §1, with “CYP2D6-mediated” for “CYP2C9-mediated”, “264.7” for “300”; assay type: ADME, cell-based

Structure (SMILES)	FC (Cytochrome P450 2C9)	FC (Cytochrome P450 3A4 [10])	FC (Cytochrome P450 2D6 [11])	also measured
Cl.Nc1ccc(/N=N/c2ccccc2)c(N)n1 [PHENAZOPYRIDINE HYDROCHLORIDE]	1			fold change (FC) (Cytochrome P450 3A4 [1]): 4.3; fold change (FC) (Cytochrome P450 2D6 [2]): 17
CNC(=C[N+](=O)[O-])NCCSCc1ccc(CN(C)C)o1 [RANITIDINE]	1			fold change (FC) (Cytochrome P450 3A4 [3]): 3.3; fold change (FC) (Cytochrome P450 2D6 [4]): 3.8
CC/C(=C(\c1ccccc1)c1ccc(OCCN(C)C)cc1)c1ccccc1 [TAMOXIFEN]				fold change (FC) (Cytochrome P450 3A4 [5]): 0.8
Cc1nc(C)c2c(n1)N(Cc1ccc(-c3ccccc3-c3nnn[nH]3)cc1)C(=O)CC2 [TASOSARTAN]	1			fold change (FC) (Cytochrome P450 3A4 [6]): 13.5; fold change (FC) (Cytochrome P450 2D6 [7]): 52
CN(C)[C@@H]1C(O)=C(C(N)=O)C(=O)[C@@]2(O)C(O)=C3C(=O)c4c(O)cccc4[C@@](C)(O)[C@H]3C[C@@H]12 [TETRACYCLINE]				fold change (FC) (Cytochrome P450 3A4 [8]): 2.9; fold change (FC) (Cytochrome P450 2D6 [9]): 2.5
Nc1nc2nc[nH]c2c(=S)[nH]1 [THIOGUANINE]	1	1	1	
Cc1ccc(C(=O)c2cc(O)c(O)c([N+](=O)[O-])c2)cc1 [TOLCAPONE]	1	1	1	
O=c1n(CCCN2CCN(c3cccc(Cl)c3)CC2)nc2ccccn12 [TRAZODONE]	1			fold change (FC) (Cytochrome P450 3A4 [12]): 34.4; fold change (FC) (Cytochrome P450 2D6 [13]): 23.2
N[C@@H]1[C@H]2CN(c3nc4c(cc3F)c(=O)c(C(=O)O)cn4-c3ccc(F)cc3F)C[C@@H]12 [TROVAFLOXACIN]	1	1		fold change (FC) (Cytochrome P450 2D6 [14]): 1.1
CCCC(CCC)C(=O)O [VALPROIC ACID]	1	1	1	
CC(=O)CC(c1ccccc1)c1c(O)c2ccccc2oc1=O (stereo unspecified) [WARFARIN]	1	1	1	
Nc1ccn([C@H]2CC[C@@H](CO)O2)c(=O)n1 [ZALCITABINE]	1	1	1	
Cc1cn([C@H]2C[C@H](N=[N+]=[N-])[C@@H](CO)O2)c(=O)[nH]c1=O [ZIDOVUDINE]	1	1	1	
